According to US11242327B2, “Analgesic compounds” (RECURIUM IP HOLDINGS, LLC, priority 2017, dated 2022):

How the values were obtained:
[1] = test system: male Sprague-Dawley rats; assay: Osteoarthritis Pain Test (MIA, mechanical hyperalgesia); type: in vivo; details: rat; for joint compression threshold, Day 3, 1 h: Day 3, 1 h post-dosing; for joint compression threshold, Day 3, 2 h: Day 3, 2 h post-dosing; for joint compression threshold, Day 3, 4 h: Day 3, 4 h post-dosing; for joint compression threshold, Day 6, 1 h: Day 6, 1 h post-dosing; for joint compression threshold, Day 6, 2 h: Day 6, 2 h post-dosing; for joint compression threshold, Day 6, 4 h: Day 6, 4 h post-dosing; for joint compression threshold, Day 0, 1 h: Day 0, 1 h post-dosing; for joint compression threshold, Day 0, 2 h: Day 0, 2 h post-dosing; for joint compression threshold, Day 0, 4 h: Day 0, 4 h post-dosing
Protocol: Osteoarthritis pain was induced in non-fasted male Sprague-Dawley rats weighing 150-250 g by injecting 2 mg of monosodium iodoacetate (MIA) into the left knee joint. Mechanical hyperalgesia was measured using a digital Randall-Selitto device (dRS; IITC Life Sciences©; Woodland Hills, Calif.). Animals were allowed to acclimate to the testing room for a minimum of 15 minutes before testing. Animals were placed in a restraint sling that suspended the animal, leaving the hind limbs available for testing. The stimulus was applied to the knee joint by a blunt tip and pressure was applied gradually over approximately 10 seconds. Joint compression threshold values were recorded at the first observed nocifensive behavior (vocalization, struggle, or withdrawal). One reading per joint was taken at each time point, and a maximum stimulus cutoff of 500 grams was used to prevent injury to the animal. Mechanical hyperalgesia was assessed prior to MIA injection, and again 14 days later. After 14 days, test or control articles were administered once daily for 7 days with mechanical hyperalgesia assessed prior to dosing, 1, 2, and 4 hours post-dosing on days 0, 3, and 6. Test compounds were administered orally at concentrations of 3, 10, 30 or 100 mg/kg and celecoxib was administered orally at a concentration of 30 mg/kg. The control group received the vehicle (sterile water). After day 0, groups receiving the 100 mg/kg dose were reduced to a dose of 3 mg/kg. In Table 5, ‘A’ designates ≥375 grams of joint compression, ‘B’ designates ≥325 and <375 grams of joint compression, and ‘C’ designates <325 grams of joint compression.
The results provided in Table 5 are for oral administration in rats.

[2] = test system: male Sprague-Dawley rats; assay: UVB Inflammatory Pain Test (thermal hyperalgesia); type: in vivo; details: rat, oral; for paw withdrawal latency, 1 h: 1 h after dosing; for paw withdrawal latency, 2 h: 2 h after dosing; for paw withdrawal latency, 4 h: 4 h after dosing
Method in brief: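 Left hind-paw plantar UVB (350 mJoules/cm^2) given on Day −3 to male Sprague-Dawley rats; on Day 0, test compounds dosed orally at 3, 10, 30 or 100 mg/kg, with water vehicle, celecoxib 30 mg/kg and acetaminophen 300 mg/kg. Radiant-heat paw withdrawal latency (mean of 3, 30 s cutoff) measured before dosing and about 1, 2 and 4 h after.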

[3] = oral once daily, 3 mg/kg (group had 100 mg/kg on day 0)

Cc1sc(C23CC(N)(C2)C3)nc1C(F)(F)F.Cl [Compound 2, 3-(5-Methyl-4-(trifluoromethyl)thiazol-2-yl)bicyclo[1.1.1]pentan-1-amine hydrochloride]
joint compression threshold, Day 3, 1 h [1, 3]: A (≥375 grams of joint compression)
joint compression threshold, Day 3, 2 h [1, 3]: A (≥375 grams of joint compression)
joint compression threshold, Day 3, 4 h [1, 3]: A (≥375 grams of joint compression)
joint compression threshold, Day 6, 1 h [1, 3]: B (≥325 and <375 grams of joint compression)
joint compression threshold, Day 6, 2 h [1, 3]: B (≥325 and <375 grams of joint compression)
joint compression threshold, Day 6, 4 h [1, 3]: B (≥325 and <375 grams of joint compression)
joint compression threshold, Day 0, 1 h ([1]; oral once daily, 10 mg/kg): C (<325 grams of joint compression)
joint compression threshold, Day 0, 2 h ([1]; oral once daily, 10 mg/kg): C (<325 grams of joint compression)
joint compression threshold, Day 0, 4 h ([1]; oral once daily, 10 mg/kg): C (<325 grams of joint compression)
joint compression threshold, Day 3, 1 h ([1]; oral once daily, 10 mg/kg): B (≥325 and <375 grams of joint compression)
joint compression threshold, Day 3, 2 h ([1]; oral once daily, 10 mg/kg): A (≥375 grams of joint compression)
joint compression threshold, Day 3, 4 h ([1]; oral once daily, 10 mg/kg): C (<325 grams of joint compression)
joint compression threshold, Day 6, 1 h ([1]; oral once daily, 10 mg/kg): B (≥325 and <375 grams of joint compression)
joint compression threshold, Day 6, 2 h ([1]; oral once daily, 10 mg/kg): B (≥325 and <375 grams of joint compression)
joint compression threshold, Day 6, 4 h ([1]; oral once daily, 10 mg/kg): A (≥375 grams of joint compression)
joint compression threshold, Day 0, 1 h ([1]; oral once daily, 30 mg/kg): B (≥325 and <375 grams of joint compression)
joint compression threshold, Day 0, 2 h ([1]; oral once daily, 30 mg/kg): B (≥325 and <375 grams of joint compression)
joint compression threshold, Day 0, 4 h ([1]; oral once daily, 30 mg/kg): B (≥325 and <375 grams of joint compression)
joint compression threshold, Day 3, 1 h ([1]; oral once daily, 30 mg/kg): B (≥325 and <375 grams of joint compression)
joint compression threshold, Day 3, 2 h ([1]; oral once daily, 30 mg/kg): B (≥325 and <375 grams of joint compression)
joint compression threshold, Day 3, 4 h ([1]; oral once daily, 30 mg/kg): B (≥325 and <375 grams of joint compression)
joint compression threshold, Day 6, 1 h ([1]; oral once daily, 30 mg/kg): B (≥325 and <375 grams of joint compression)
joint compression threshold, Day 6, 2 h ([1]; oral once daily, 30 mg/kg): B (≥325 and <375 grams of joint compression)
joint compression threshold, Day 6, 4 h ([1]; oral once daily, 30 mg/kg): A (≥375 grams of joint compression)
joint compression threshold, Day 0, 1 h ([1]; oral, 100 mg/kg): A (≥375 grams of joint compression)
joint compression threshold, Day 0, 2 h ([1]; oral, 100 mg/kg): A (≥375 grams of joint compression)
joint compression threshold, Day 0, 4 h ([1]; oral, 100 mg/kg): A (≥375 grams of joint compression)
paw withdrawal latency, 1 h ([2]; 3 mg/kg): A (>8 seconds of paw withdrawal latency)
paw withdrawal latency, 2 h ([2]; 3 mg/kg): A (>8 seconds of paw withdrawal latency)
paw withdrawal latency, 4 h ([2]; 3 mg/kg): A (>8 seconds of paw withdrawal latency)
paw withdrawal latency, 1 h ([2]; 10 mg/kg): A (>8 seconds of paw withdrawal latency)
paw withdrawal latency, 2 h ([2]; 10 mg/kg): B (>6 and <8 seconds of paw withdrawal latency)
paw withdrawal latency, 4 h ([2]; 10 mg/kg): A (>8 seconds of paw withdrawal latency)
paw withdrawal latency, 1 h ([2]; 30 mg/kg): A (>8 seconds of paw withdrawal latency)
paw withdrawal latency, 2 h ([2]; 30 mg/kg): A (>8 seconds of paw withdrawal latency)
paw withdrawal latency, 4 h ([2]; 30 mg/kg): B (>6 and <8 seconds of paw withdrawal latency)
paw withdrawal latency, 1 h ([2]; 100 mg/kg): A (>8 seconds of paw withdrawal latency)
paw withdrawal latency, 2 h ([2]; 100 mg/kg): A (>8 seconds of paw withdrawal latency)
paw withdrawal latency, 4 h ([2]; 100 mg/kg): A (>8 seconds of paw withdrawal latency)
